System: PC, PG and PE : PG mixed nanodiscs
Assay: Phospholipid nanodisc 1H NMR CPMG coordination assay, comparison across the three nanodiscs
Format: binding
Settings: SSA 0.10 mM, in words
Source text: Finally, to establish how any single SSA structural variation affects the coordination of an individual salt component to the surface of a phospholipid membrane, the binding of the anionic and cationic components of SSAs 5–12 with nanodiscs comprised of PC, PG or the PE : PG mix (Table 2) was studied. Nanodiscs were synthesised from synthetic vesicles of the relevant phospholipid composition. For full synthetic procedures and nanodisc characterisation please see ESI (Section 13). ^†[34,35]
Styrene-maleic acid (SMA) nanodiscs are small biomimetic scaffolds with a hydrodynamic diameter ≈ 10 nm. […]
Fluorescence polarisation: Lipid films were resuspended in Buffer (150 mM KCl, 10 mM HEPES, pH 7.4, 2 mM EGTA) and subjected to 9 freeze-thaw cycles in liquid nitrogen and extruded 20 times through a 200 nm polycarbonate membrane. […]
Nanodisc preparation: Lipid films were resuspended in Buffer (20 mM NaCl, 20 mM NaH 2PO4, pH 7.4) and sonicated for 1 hour, at a 5:1 ratio, SMA was added and incubated at 37 °C for 1 hour. Dialysed overnight in 5 L of the same buffer in 10 KDa cut-off dialysis tubing, concentrated, and underwent gel filtration size exclusion chromatography on a Superdex 200 10/300 GL column (GE Healthcare) in the same buffer, whilst monitoring absorbance at 260 nm. Nanodisc quantification carried out via monitoring of absorbance at 260 nm using a calibration curve.2 […]

| SMILES | interaction of the anionic component of SSA with phospholipid nanodiscs |
| --- | --- |
| Cc1ccc2nc(NC(=O)NCS(=O)(=O)O)sc2c1 [SSA 7] | not to interact with any great significance to any of the phospholipid nanodiscs tested |
| Cc1ccc2nc(-c3ccc(NC(=S)NCS(=O)(=O)O)cc3)sc2c1 [SSA 12] | greatest binding affinity for all three nanodiscs of the SSAs tested |

— publication PMC9400670, “Establishing the selective phospholipid membrane coordination, permeation and lysis properties for a series of ‘druggable’ supramolecular self-associating antimicrobial amphiphiles” (Chemical Science, 2022)
